Measured values: patent US12247032B2, “Substituted pyrazolo[1,5-a]pyrimidines as inhibitors of JAK kinases” (Genentech, Inc., priority 2019, dated 2025)

Legend:
[1] = molecular target: T1, recombinant human JAK1 kinase domain protein (Residues 854-1154) (Homo sapiens, UniProt P23458); test: JAK1 biochemical assay (microfluidic mobility shift, peptide phosphorylation); settings: 25 μM ATP, 1 nM total JAK1; Ki calculated from Ki app (tight-binding, competitive); read-out: Biochem JAK1 Ki
T1 construct: human JAK1 kinase domain protein (Residues 854-1154); purchased Proteros Biostructures GmbH (Martinsried, Germany); host or cells: insect cells
T1 sequence (P23458 854-1154): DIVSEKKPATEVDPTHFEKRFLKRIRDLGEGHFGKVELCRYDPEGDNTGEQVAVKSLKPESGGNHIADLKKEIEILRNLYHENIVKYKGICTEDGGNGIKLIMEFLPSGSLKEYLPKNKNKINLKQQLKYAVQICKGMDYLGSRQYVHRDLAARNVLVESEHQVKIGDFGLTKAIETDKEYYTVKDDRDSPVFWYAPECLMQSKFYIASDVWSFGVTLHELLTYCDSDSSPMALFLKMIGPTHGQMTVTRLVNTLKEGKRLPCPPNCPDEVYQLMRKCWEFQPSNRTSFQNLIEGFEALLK
How it was run: (§1)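 Insect-cell-expressed human JAK1 (1 nM, residues 854-1154) or JAK2 (0.2 nM, residues 812-1132) phosphorylating 1.5 μM 5-FAM peptide Y-1B with 25 μM ATP, pH 7.2 HEPES, 30 min at 22-23 °C; twelve concentrations up to 1000 nM in duplicate. Mobility-shift % conversion fitted to tight-binding quadratic for Ki^app.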

[2] = molecular target: T2, Recombinant human JAK2 kinase domain protein (Residues 812-1132) (Homo sapiens, UniProt O60674); test: JAK2 biochemical assay (microfluidic mobility shift, peptide phosphorylation); settings: 25 μM ATP, 0.2 nM total JAK2; Ki calculated from Ki app (tight-binding, competitive); read-out: Biochem JAK2 Ki
T2 construct: human JAK2 kinase domain protein (Residues 812-1132); made in house; host or cells: insect cells
T2 sequence (O60674 812-1132): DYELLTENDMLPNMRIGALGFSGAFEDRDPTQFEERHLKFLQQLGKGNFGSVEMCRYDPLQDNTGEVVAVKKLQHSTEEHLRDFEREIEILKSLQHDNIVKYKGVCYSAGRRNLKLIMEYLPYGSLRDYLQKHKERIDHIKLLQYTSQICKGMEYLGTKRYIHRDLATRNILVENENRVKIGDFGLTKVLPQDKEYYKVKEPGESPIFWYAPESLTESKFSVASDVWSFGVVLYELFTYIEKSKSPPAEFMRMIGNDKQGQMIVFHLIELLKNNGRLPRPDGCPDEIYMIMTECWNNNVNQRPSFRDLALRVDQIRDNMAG
How it was run: as §1

SMILES | Ki [1] [pM] | Ki [2] [pM]
O=C(Nc1cn(Cc2nnn(C3CCNC3)n2)nc1-c1cc(OC(F)F)ccc1OC(F)F)c1cnn2cccnc12 (single isomer, unassigned) [Example 27, N-[3-[2,5-bis(difluoromethoxy)phenyl]-1-[(2-pyrrolidin-3-yltetrazol-5-yl)methyl]pyrazol-4-yl]pyrazolo[1,5-a]pyrimidine-3-carboxamide] | 350 | 380
NCCn1nnc(Cn2cc(NC(=O)c3cnn4cccnc34)c(-c3cc(OC(F)F)ccc3OC(F)F)n2)n1 [Example 13, N-[1-[[2-(2-aminoethyl)tetrazol-5-yl]methyl]-3-[2,5-bis(difluoromethoxy)phenyl]pyrazol-4-yl]pyrazolo[1,5-a]pyrimidine-3-carboxamide] | 250 | 160
NCCn1nnnc1Cn1cc(NC(=O)c2cnn3cccnc23)c(-c2cc(OC(F)F)ccc2OC(F)F)n1 [Example 14, N-[1-[[1-(2-aminoethyl)tetrazol-5-yl]methyl]-3-[2,5-bis(difluoromethoxy)phenyl]pyrazol-4-yl]pyrazolo[1,5-a]pyrimidine-3-carboxamide] | 260 | 120
CN(C)CCn1nnnc1Cn1cc(NC(=O)c2cnn3cccnc23)c(-c2cc(OC(F)F)ccc2OC(F)F)n1 [Example 17, N-[3-[2,5-bis(difluoromethoxy)phenyl]-1-[[1-[2-(dimethylamino)ethyl]tetrazol-5-yl]methyl]pyrazol-4-yl]pyrazolo[1,5-a]pyrimidine-3-carboxamide] | 430 | 230
O=C(Nc1cn(Cc2nnn(C3CCNCC3)n2)nc1-c1cc(OC(F)F)ccc1OC(F)F)c1cnn2cccnc12 [Example 18, N-[3-[2,5-bis(difluoromethoxy)phenyl]-1-[[2-(4-piperidyl)tetrazol-5-yl]methyl]pyrazol-4-yl]pyrazolo[1,5-a]pyrimidine-3-carboxamide] | 510 | 430
CNCCn1nnc(Cn2cc(NC(=O)c3cnn4cccnc34)c(-c3cc(OC(F)F)ccc3OC(F)F)n2)n1 [Example 20, N-[3-[2,5-bis(difluoromethoxy)phenyl]-1-[[2-[2-(methylamino)ethyl]tetrazol-5-yl]methyl]pyrazol-4-yl]pyrazolo[1,5-a]pyrimidine-3-carboxamide] | 570 | 460
CN1CCC(n2nnc(Cn3cc(NC(=O)c4cnn5cccnc45)c(-c4cc(OC(F)F)ccc4OC(F)F)n3)n2)CC1 [Example 22] | 440 | 300
CN1CC(n2nnc(Cn3cc(NC(=O)c4cnn5cccnc45)c(-c4cc(C5CC5)ccc4OC(F)F)n3)n2)C1 [Example 23, N-[3-[5-cyclopropyl-2-(difluoromethoxy)phenyl]-1-[[2-(1-methylazetidin-3-yl)tetrazol-5-yl]methyl]pyrazol-4-yl]pyrazolo[1,5-a]pyrimidine-3-carboxamide] | 420 | 240
CN1CCC(n2nnnc2Cn2cc(NC(=O)c3cnn4cccnc34)c(-c3cc(OC(F)F)ccc3OC(F)F)n2)C1 (stereo not drawn) [Example 26, N-[3-[2,5-bis(difluoromethoxy)phenyl]-1-[[1-(1-methylpyrrolidin-3-yl)tetrazol-5-yl]methyl]pyrazol-4-yl]pyrazolo[1,5-a]pyrimidine-3-carboxamide] | 510 | 390
CN(CCN1CC(n2nnc(Cn3cc(NC(=O)c4cnn5cccnc45)c(-c4cc(OC(F)F)ccc4OC(F)F)n3)n2)C1)C(=O)OC(C)(C)C [Example 31, tert-butyl N-[2-[3-[5-[[3-[2,5-bis(difluoromethoxy)phenyl]-4-(pyrazolo[1,5-a]pyrimidine-3-carbonylamino)pyrazol-1-yl]methyl]tetrazol-2-yl]azetidin-1-yl]ethyl]-N-methyl-carbamate] | 340 | 250
CN1CCC(N2CC(n3nnc(Cn4cc(NC(=O)c5cnn6cccnc56)c(-c5cc(OC(F)F)ccc5OC(F)F)n4)n3)C2)CC1 [Example 38, N-[3-[2,5-bis(difluoromethoxy)phenyl]-1-[[2-[1-(1-methyl-4-piperidyl)azetidin-3-yl]tetrazol-5-yl]methyl]pyrazol-4-yl]pyrazolo[1,5-a]pyrimidine-3-carboxamide] | 480 | 440
CSc1ccc(OC(F)F)c(-c2nn(Cc3nnn(C4CN(CCCN(C)C)C4)n3)cc2NC(=O)c2cnn3cccnc23)c1 [Example 58, N-[3-[2-(difluoromethoxy)-5-methylsulfanyl-phenyl]-1-[[2-[1-[3-(dimethylamino)propyl]azetidin-3-yl]tetrazol-5-yl]methyl]pyrazol-4-yl]pyrazolo[1,5-a]pyrimidine-3-carboxamide] | 410 | 380

The next lines start with the values.

Ki [1] [pM] | Ki [2] [pM] | SMILES
300 | 360 | O=C(Nc1cn(Cc2nnn(C3CCNC3)n2)nc1-c1cc(OC(F)F)ccc1OC(F)F)c1cnn2cccnc12 (single isomer, unassigned) [Example 28, N-[3-[2,5-bis(difluoromethoxy)phenyl]-1-[(2-pyrrolidin-3-yltetrazol-5-yl)methyl]pyrazol-4-yl]pyrazolo[1,5-a]pyrimidine-3-carboxamide]
610 | 480 | CN1CCC(N2CC(n3nnc(Cn4cc(NC(=O)c5cnn6cccnc56)c(-c5cc(OC(F)F)ccc5OC(F)F)n4)n3)C2)C1 (single isomer, unassigned) [Example 72, N-[3-[2,5-bis(difluoromethoxy)phenyl]-1-[[2-[1-(1-methylpyrrolidin-3-yl)azetidin-3-yl]tetrazol-5-yl]methyl]pyrazol-4-yl]pyrazolo[1,5-a]pyrimidine-3-carboxamide]
420 | 170 | CN1CC(n2nnc(Cn3cc(NC(=O)c4cnn5cccnc45)c(-c4cc(Cl)ccc4OC(F)F)n3)n2)C1 [Example 7, N-[3-[5-chloro-2-(difluoromethoxy)phenyl]-1-[[2-(1-methylazetidin-3-yl)tetrazol-5-yl]methyl]pyrazol-4-yl]pyrazolo[1,5-a]pyrimidine-3-carboxamide]
500 | 280 | O=C(Nc1cn(Cc2nnn(C3CNC3)n2)nc1-c1cc(Cl)ccc1OC(F)F)c1cnn2cccnc12 [Example 8, N-[1-[[2-(azetidin-3-yl)tetrazol-5-yl]methyl]-3-[5-chloro-2-(difluoromethoxy)phenyl]pyrazol-4-yl]pyrazolo[1,5-a]pyrimidine-3-carboxamide]
330 | 240 | CN1CC(n2nnc(Cn3cc(NC(=O)c4cnn5cccnc45)c(-c4cc(OC(F)F)ccc4OC(F)F)n3)n2)C1 [Example 10, N-[3-[2,5-bis(difluoromethoxy)phenyl]-1-[[2-(1-methylazetidin-3-yl)tetrazol-5-yl]methyl]pyrazol-4-yl]pyrazolo[1,5-a]pyrimidine-3-carboxamide]
390 | 270 | O=C(Nc1cn(Cc2nnn(C3CNC3)n2)nc1-c1cc(OC(F)F)ccc1OC(F)F)c1cnn2cccnc12 [Example 11, N-[1-[[2-(azetidin-3-yl)tetrazol-5-yl]methyl]-3-[2,5-bis(difluoromethoxy)phenyl]pyrazol-4-yl]pyrazolo[1,5-a]pyrimidine-3-carboxamide]
210 | 180 | O=C(Nc1cn(Cc2nnnn2C2CNC2)nc1-c1cc(OC(F)F)ccc1OC(F)F)c1cnn2cccnc12 [Example 12, N-[1-[[1-(azetidin-3-yl)tetrazol-5-yl]methyl]-3-[2,5-bis(difluoromethoxy)phenyl]pyrazol-4-yl]pyrazolo[1,5-a]pyrimidine-3-carboxamide]
220 | 92 | CN1CC(n2nnnc2Cn2cc(NC(=O)c3cnn4cccnc34)c(-c3cc(Cl)ccc3OC(F)F)n2)C1 [Example 15, N-[3-[5-chloro-2-(difluoromethoxy)phenyl]-1-[[1-(1-methylazetidin-3-yl)tetrazol-5-yl]methyl]pyrazol-4-yl]pyrazolo[1,5-a]pyrimidine-3-carboxamide]
450 | 270 | CN(C)CCn1nnc(Cn2cc(NC(=O)c3cnn4cccnc34)c(-c3cc(OC(F)F)ccc3OC(F)F)n2)n1 [Example 16, N-[3-[2,5-bis(difluoromethoxy)phenyl]-1-[[2-[2-(dimethylamino)ethyl]tetrazol-5-yl]methyl]pyrazol-4-yl]pyrazolo[1,5-a]pyrimidine-3-carboxamide]
220 | 150 | CNCCn1nnnc1Cn1cc(NC(=O)c2cnn3cccnc23)c(-c2cc(OC(F)F)ccc2OC(F)F)n1 [Example 19, N-[3-[2,5-bis(difluoromethoxy)phenyl]-1-[[1-[2-(methylamino)ethyl]tetrazol-5-yl]methyl]pyrazol-4-yl]pyrazolo[1,5-a]pyrimidine-3-carboxamide]
400 | 390 | CN(C)CCN1CC(n2nnc(Cn3cc(NC(=O)c4cnn5cccnc45)c(-c4cc(OC(F)F)ccc4OC(F)F)n3)n2)C1 [Example 21, N-[3-[2,5-bis(difluoromethoxy)phenyl]-1-[[2-[1-[2-(dimethylamino)ethyl]azetidin-3-yl]tetrazol-5-yl]methyl]pyrazol-4-yl]pyrazolo[1,5-a]pyrimidine-3-carboxamide]
480 | 360 | CN(C)CCN1CC(n2nnc(Cn3cc(NC(=O)c4cnn5cccnc45)c(-c4cc(Cl)ccc4OC(F)F)n3)n2)C1 [Example 37, N-[3-[5-chloro-2-(difluoromethoxy)phenyl]-1-[[2-[1-[2-(dimethylamino)ethyl]azetidin-3-yl]tetrazol-5-yl]methyl]pyrazol-4-yl]pyrazolo[1,5-a]pyrimidine-3-carboxamide]
